pIC50: −log10 of the molar value. Converted amounts (≈) assume the structure as drawn.
Key:
[1] = target: T1, Phospho-N-acetylmuramoyl-pentapeptide-transferase (Staphylococcus aureus, UniProt P0C1R8); assay: Inhibition of Staphylococcus aureus MraY assessed as reduction of dansylated lipid I formation using UDP-MurNAc-dansylpentapeptide as substrate incubated for 3 to 4 hrs by fluorescence based analysis
T1 sequence (P0C1R8 whole entry): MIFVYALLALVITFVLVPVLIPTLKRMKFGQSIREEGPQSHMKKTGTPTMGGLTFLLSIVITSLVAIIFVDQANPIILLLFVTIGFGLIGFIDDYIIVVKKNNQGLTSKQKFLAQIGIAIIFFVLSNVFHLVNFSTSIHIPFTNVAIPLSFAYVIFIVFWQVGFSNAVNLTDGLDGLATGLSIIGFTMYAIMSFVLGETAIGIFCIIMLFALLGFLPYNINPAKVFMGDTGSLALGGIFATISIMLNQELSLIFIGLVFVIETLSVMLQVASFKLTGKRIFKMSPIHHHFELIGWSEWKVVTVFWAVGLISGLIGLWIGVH

[2] = system: Mycobacterium tuberculosis; assay: Antibacterial activity against Mycobacterium tuberculosis H37Rv incubated for 14 days measured by microplate reader method; format: functional; conditions: 336 h, time 14 day
[3] = system: Mycolicibacterium smegmatis; assay: Antibacterial activity against Mycobacterium smegmatis mc2 155 incubated for 4 days measured by microplate reader method; format: functional; conditions: mc2 155, 96 h, time 4 day
[4] = Antibacterial activity against Mycobacterium avium subsp. avium ATCC 25291 incubated for 11 days measured by microplate reader method; format: functional; conditions: ATCC 25291, 264 h, time 11 day
[5] = Antibacterial activity against Mycobacterium abscessus subsp. abscessus ATCC 19977 incubated for 5 days measured by microplate reader method; format: functional; conditions: Mycobacteroides abscessus, ATCC 19977, 120 h; time 5 day
[6] = Inhibition of bacterial MraY; design: species or system Bacteria
[7] = system: Mycolicibacterium smegmatis; assay: Antibacterial activity against Mycobacterium smegmatis; format: functional

Row | SMILES | pIC50 [1] | MIC50 [2] | MIC50 [3] | MIC50 [4] | MIC50 [5] | IC50 [6] | MIC [7]
1 | CO[C@H]1[C@@H](O)[C@H](n2ccc(=O)[nH]c2=O)O[C@@H]1[C@H](C#N)O[C@H]1OC(C(=O)N[C@H]2CCCCNC2=O)=C[C@H](O)[C@@H]1O | 4.92 | > 32 µg/mL | > 32 µg/mL | > 32 µg/mL | > 64 µg/mL | – | –
2 | O=C(N[C@H]1CCCCNC1=O)C1=C[C@H](O)[C@H](O)[C@@H](OC[C@H]2O[C@@H](n3ccc(=O)[nH]c3=O)[C@H](O)[C@@H]2O)O1 | 4.12 | > 32 µg/mL | > 32 µg/mL | > 32 µg/mL | 32 µg/mL (≈ 62.4 µM) | – | –
3 | CO[C@H]1[C@@H](O)[C@H](n2ccc(=O)[nH]c2=O)O[C@@H]1[C@@H](O[C@H]1OC(C(=O)N[C@H]2CCCCNC2=O)=C[C@H](O)[C@@H]1O)C(N)=O [CAPURAMYCIN] | 6.48 | 32 µg/mL (≈ 56.2 µM) | 32 µg/mL (≈ 56.2 µM) | 8 µg/mL (≈ 14 µM) | 64 µg/mL (≈ 112 µM) | 0.01 µg/mL (≈ 0.0176 µM) | 6.25 µg/mL (≈ 11 µM)
4 | CO[C@H]1[C@@H](O)[C@H](n2ccc(=O)[nH]c2=O)O[C@@H]1[C@H](O[C@H]1OC(C(=O)N[C@H]2CCCCNC2=O)=C[C@H](O)[C@@H]1O)C(N)=O | 5.00 | > 32 µg/mL | > 32 µg/mL | > 32 µg/mL | ≥ 64 µg/mL | – | –
5 | NC(=O)[C@H](O[C@H]1OC(C(=O)N[C@H]2CCCCNC2=O)=C[C@H](O)[C@@H]1O)[C@H]1O[C@@H](n2ccc(=O)[nH]c2=O)[C@H](O)[C@@H]1O | 5.70 | > 32 µg/mL | 32 µg/mL (≈ 57.6 µM) | 16 µg/mL (≈ 28.8 µM) | ≥ 64 µg/mL | – | –

— ChEMBL document CHEMBL5214959, “Synthesis of capuramycin and its analogues via a Ferrier-type I reaction and their biological evaluation” (Bioorg Med Chem, 2022)
